Measurements: US20260151391A1, “TREATMENT OF MITOCHONDRIAL DISEASES WITH sGC STIMULATORS” (Tisento Therapeutics Inc., priority 2022, published 2026)

Assays:
[1] = system: sGC enzyme; assay: cGMP GloSensor cell-based assay, 384-well format; parameters: species or system human; conditions: HEK293 GloSensor 40F cGMP cells, 10 μM DETA-NONOate; geometrical mean; I-20 and I-14: average of free acid and sodium salt; read-out: Glo EC50
Description: Human embryonic kidney cells (HEK293) cells expressing GloSensor™ 40F cGMP (Part No: CS182801, Promega) were used to evaluate the activity of test compounds. The luminescent biosensors (engineered luciferase) that were incorporated into these cells detect cGMP formed by the compounds stimulating the sGC enzyme and emit luminescence.
cGMP GloSensor cells were maintained in Dulbecco's Modification of Eagle's Medium (DMEM) supplemented with fetal bovine serum (FBS, 10% final) and hygromycine (200 ug/ml). The day before assay, cells were plated in DMEM with 10% FBS in a 50 μL volume at a density of 1.5×10^4 cells/well in a poly-D-lysine coated 384-well flat white-bottom plate (Corning Cat No 35661). […] Test compounds and Diethylenetriamine NONOate (DETA-NONOate) was diluted to 3 mM (20×) in serum-free CO2 independent medium and serially diluted at 4× dilutions to create 5× dose curve from which 10 ul was added to the wells (x μM concentration for test compound solution and 10 μM concentration for DETA-NONOate solution; wherein x is one of the following final concentrations: 30 μM, 7.5 μM, 1.9 μM, 469 nM, 117 nM, 29.3 nM, 7.3 nM, 1.83 nM, 0.46 nM, 0.11 nM, 0.03 nM) For the kinetics studies, luminescense was measured right away for 0.2 sec per well with Envision (Perkin Elmer). […]
Concentration response data were analyzed using a 4-parameter fit (log (agonist) vs. response-variable slope). […]

[2] = system: normotensive Sprague Dawley rats; assay: Blood pressure effects in normotensive rats following acute oral dose; assay type: in vivo, rat; conditions: for Peak ΔVMAP (mm Hg): sodium salt in Milli-Q water, vehicle-adjusted MAP, 10-minute bins; for Time at Peak: time of peak ΔVMAP
Procedure: Male, normotensive Sprague Dawley rats were purchased from Charles River Laboratories. These rats have indwelling femoral artery catheters installed. Animals were harnessed to a tether system and attached to pressure transducers to monitor cardiovascular (CV) parameters, specifically mean arterial pressure (MAP) and heart rate (HR). Animals were acclimated to the system overnight and baseline CV parameters collected. The conscious, freely moving rats were then administered a single oral dose of the Compound I-14 (doses generated from the sodium salt of Compound I-14) in Milli-Q water at 1, 3, 10 and 30 mg/kg. A blood sample was collected from each animal through the catheter line at pre-dose and 2 hours post-dose for compound concentration quantification. Hemodynamic measures were recorded for ten hours post-dose. Fifty-four male rats were used for these studies and they were ordered to be received at a body weight range of 250-275 grams. They were single housed under controlled conditions of temperature (21±1° C.), relative humidity (36±1%) and placed in a 12-hr light-dark cycle (lights on at 6:00 AM and off at 6:00 PM) room at SmartLabs vivarium (21 Erie Street, Cambridge, MA) under protocol MIL-110. Animals were allowed ad libitum access to chow (LabDiet Prolab Isopro RMH 3000, St. Louis, MO) and water. Two sets of studies were carried out. For the first set of studies Compound I-14 was formulated at 0.3 and 1.0 mg/ml in Milli-Q water and frozen at −20° C. For the second set of studies, the sodium salt of Compound I-14 was weighed at Cyclerion Therapeutics and reconstituted at SmartLabs to provide 0.1, 0.3, 1.0 and 3.0 mg/ml solutions of Compound I-14 in Milli-Q water. Formulations prepared were thawed less than 4 hours before dosing and stored at room temperature or were made less than 2 hours before dosing and stored at room temperature.
Studies were conducted over 6 separate sessions. Animals were initially used within 3 days of receipt and if catheters remained patent, reused once after 6-7 days of washout. No animals were used more than twice.
This study utilized ADInstruments LabChart (v8) to collect hemodynamic data from conscious, freely moving rats tethered to a blood pressure transducer (Harvard Apparatus cat #APT300). Following an overnight acclimation to the tether and pressure transducer, animals were dosed following a 1-hr baseline recording period. Animals were administered a single oral (P.O.) dose of the sodium salt form of Compound I-14 or vehicle at a dose volume of 10 mL/kg. Data collection was continued for 10 hours post-dose.
ADInstruments LabChart (v8) was used to monitor and export hemodynamic data. Blood pressure and heart rate were continuously monitored, and data were collected at 1000 data points per second then averaged into 10-minute bins for analysis. Change from baseline MAP (ABMAP) and HR (ABHR) were calculated using the pre-dose baseline averaged over the 1-hr period prior to dosing using Microsoft Excel for Microsoft 365. This 10-minute bin dataset was used to determine peak ΔVMAP, time peak ΔVMAP, peak ΔVHR and time of peak ΔVHR. The dataset was further consolidated into 1-hr bins for the MAP and HR figures and the analysis of ΔBMAP, ΔBMAP, and ΔBHR. The definitions of these terms/abbreviations are summarized below:
Statistical analyses were performed in Graphpad Prism (v8). Significance, as compared to vehicle-treated rats, for ΔBMAP and ΔBHR data was determined by 2-way repeated measures ANOVA followed by a Dunnett's multiple comparisons test, if there was a missing data point, a mixed-effect analysis was utilized. Vehicle-adjusted MAP (ΔVMAP) was calculated by subtracting ΔBMAP of the vehicle group from the ΔBMAP of each dose group at each timepoint. Vehicle-adjusted HR (ΔVHR) was calculated in a similar manner to ΔVMAP.
Significance of AOC data were determined by one-way ANOVA followed by a Dunnett's multiple comparisons test as compared to vehicle. […]

EC50 [1]: ≤ 100 nM
SMILES: Cc1cc(F)c(Cc2nc(-c3ncc(F)c(O)n3)cn3ccnc23)cc1F [Compound I-14, 5-fluoro-2-(8-(2,5-difluoro-4-methylbenzyl)imidazo[1,2-a]pyrazin-6-yl)pyrimidin-4-ol]
Peak ΔVMAP (mm Hg) ([2]; 1 mg/kg single oral dose): −6.2 mm Hg
Peak ΔVMAP (mm Hg) ([2]; 3 mg/kg single oral dose): −10.1 mm Hg
Peak ΔVMAP (mm Hg) ([2]; 10 mg/kg single oral dose): −22.3 mm Hg
Peak ΔVMAP (mm Hg) ([2]; 30 mg/kg single oral dose): −24.4 mm Hg
no effect dose on ΔBMAP ([2]; single oral dose, main effect analysis, simple effects analysis and AOC): 1 mg/kg
Time at Peak ([2]; 1 mg/kg single oral dose): 90 min
Time at Peak ([2]; 3 mg/kg single oral dose): 70 min
Time at Peak ([2]; 10 mg/kg single oral dose): 30 min
Time at Peak ([2]; 30 mg/kg single oral dose): 30 min
